Assay results reported in patent US20220380341A1, “INHIBITORS OF HIV-1 NEF FOR THE TREATMENT OF HIV DISEASE” (priority 2018, published 2022).
Several values for one entry are separate records, joined by “and”; a condition that tells them apart may be missing. Equal values may be shown once. Read-outs that look alike come from different tables or passages of the source.

Columns and labels:
[1] = biological target: T1, HIV-1 Nef SF2 (Human immunodeficiency virus type 1 group M subtype B, UniProt P03407); assay: biochemical; assay type: binding; conditions: two-step induced-fit model, Reichert SPR, read-out: Reichert SPR Nef SF2 (M) two-step fitting
T1 construct: made in house

[2] = system: HIV-1 NL4-3; assay: HIV-1 replication in normal donor PBMCs (p24 Gag AlphaLISA); assay type: cell-based; conditions: Table 1, 4 days, words (Not active, Borderline) where no bound is given
Outline: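 PHA/IL-2-activated donor PBMCs infected with HIV-1 NL4-3, wild-type or Δ-Nef, with inhibitor (1–1,000 nM, 0.1% DMSO) in IL-2 medium. Lysates taken after 4 days and p24 quantified by AlphaLISA against a p24 standard; IC50 by non-linear regression, CC50 by CellTiter-Blue in uninfected cells.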

[3] = system: HIV-1NL4-3; assay: HIV-1 infectivity assay in TZM-bl reporter cell line (LTR-luciferase, 48 h); assay type: cell-based; conditions: Human immunodeficiency virus 1, TZM-bl
Outline: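 Percent inhibition of HIV-1NL4-3 infectivity at 1 μM compound, from luciferase output of TZM-bl cells 48 h after infection. Scale anchors are DMSO-treated wild-type infection as zero and DMSO-treated Nef-defective infection as full Nef-dependent effect.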

[4] = biological target: Nef from SIV (strain mac239) (Simian immunodeficiency virus, UniProt Q5QGG3); assay: biochemical
Method: Also shown are SPR data recorded on a Reichert 4-channel SPR instrument. […] Recombinant Nef is immobilized on the biosensor surface, and each compound is injected and association/dissociation kinetics are recorded. The resulting data for the 3 isoforms are each best-fit using both a two-site model and a two-step, induced-fit model. Dissociation constants (KD), calculated from the kinetic association and dissociation constants from all three isoforms, are shown in columns 6-7. Data were fit using three regimes and the resulting KD: from each model are shown in the Table: 1:1 Langmuir fit; 2-site fit, which yields low and high affinity components; and a 2-step induced fit model.

[5] = system: TZM-bl cell line; assay type: cell-based; conditions: human, 1 μM
Outline: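 TZM-bl cells (HIV-1 LTR-luciferase) infected with HIV-1NL4-3 with compound at 1 μM; luciferase read 48 h later. Percent inhibition normalized to DMSO wild-type infection (0%) and Nef-defective HIV-1 infection (100% of Nef-dependent effect). Viability in uninfected TZM-bl cells by Cell Titer Blue.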

[6] = biological target: HIV-1 NefNL4-3 (Human immunodeficiency virus type 1 group M subtype B, UniProt P03406, A33V/T15A/T51N/V11I); assay: Surface plasmon resonance binding to recombinant full-length Nef (NL4-3); conditions: for T, minutes (residence time): 2-step induced fit, T = 1/koff2; for RU30/RUNef (extent of binding): response units at 30 μM relative to Nef immobilized on the SPR chip
[7] = system: uninfected PBMCs; assay type: cell-based; conditions: human
Method: FIG. 4. Inhibition of HIV-1 replication by compounds disclosed herein in PBMCs. Donor PBMCs were infected with HIV-1 in the presence of inhibitor concentrations ranging from 1 to 1,000 nM or the DMSO carrier solvent as a negative control (0.1% DMSO final). Replication was assessed by p24 Gag AlphaLISA (Perkin Elmer) […]. Each donor was also infected with Nef-defective HIV-1 to establish the baseline for Nef-dependent enhancement of replication in each culture. Cytotoxicity was assessed in uninfected PBMCs over the same incubation period using the CellTiter-Blue assay (Promega). Data were fit by non-linear regression analysis (GraphPad Prism v.7.04) to determine the IC50 and CC50 values shown.
Non-HLA-typed buffy coats (Source: Pittsburgh Central Blood Bank, #E3755) are received and processed within 24 hours of blood donation. PBMCs are isolated via rocking for RBC separation following 1:1 dilution with PBS, followed by Ficoll gradient centrifugation. The lymphocyte fraction is removed and washed several times for a final concentration of ˜150-300×10^6 cells per donor. Cells are activated for 3 days with 1-5 μg/mL PHA (Sigma) and 50 U/mL IL-2. Cells are plated at 750,000 cells/ml and viability is checked at day 3 using the Cell Titer Blue assay (Promega). If cells are >90% viable, then they are infected with HIV-1 NL4-3, wild-type or Δ-Nef mutant (input typically 30-500 pg/mL p24 capsid equivalents) in the presence or absence of Nef inhibitor analogs. IL-2 is included in the media at the time of infection. After 4 days, cells are lysed with 1% Triton X-100 for 1.5 h, checked for viability via Cell Titer Blue, and frozen/stored at −20° C. HIV-1 replication is assessed with a high-sensitivity HIV-1 p24 AlphaLISA assay (Perkin Elmer) in ½-volume 96-well plates, using one-half of the recommended assay volumes for all reagents (including samples). Assays are read on the BioTek Cytation5 instrument; readout is in AlphaUnits and replication in p24 pg/mL is determined using an HIV-1 p24 capsid protein standard included in the Alpha kit.

[8] = 1.0 μM, TZM-bl reporter cell line, Table 4, read-out: % Infectivity Inhibition
[9] = 1 μM, TZM-bl, normalized: DMSO wild-type HIV-1 = 0%, Nef-defective HIV-1 = 100%, read-out: HIV-1 Infectivity % Inhibition norm. to Δ-Nef @ 1 μM
[10] = KD, M, Table 4, SPR fit 2-step induced fit, KD = koff/kon × koff2/(koff2 + kon2)
[11] = Nef NL4-3 Binding, SPR 2-state fitting KD, Table 1, 2-step induced-fit model
[12] = Reichert SPR Nef NL43 (M) two-step fitting, KD, two-step induced-fit model, Reichert SPR, Table 3

Compound | Kd [1] [M] | HIV Replication PBMC IC50 vs. HIV NL4-3 [2] | inhibition at 1 µM [3, 8] [%] | inhibition at 1 µM [3, 9] [%] | Kd [4] [nM] | % Cell Viability [5] [%] | Toxicity % Viability @ 1 μM (TZM-bl) [5] [%] | Kd [6, 10] [M] | Kd [6, 11] | Kd [6, 12] [M] | T, minutes (residence time) ([6]; Table 4) | RU30/RUNef (extent of binding) [6] [E- 02] | Toxicity in HIV Replication PBMC (Toxic @ concentration) [7] | inhibition at 1 µM ([3]; 48 h, Table 1, TZM-bl cells, 1 μM, 48 h, 100% = Nef-defective HIV-1, read-out: HIV-1 Infectivity % Inhibition Norm. to Δ-Nef @ 1 μM) [%] | Percent Viability @ 1 μM (TZM-bl cells) [5] [%] | Kd [6] [M] | Kd ([6]; read-out: Nef NL4-3 Binding, SPR 1:1 or 2-site fitting KD2, Table 1, 2-site fit, second component) [M]
CC(C)(C)OC(=O)N1CCC(CCc2c(-c3ccc(S(C)(=O)=O)cc3)nn(-c3nc4ccccc4[nH]3)c2O)CC1 [Compound I-201, tert-butyl 4-{2-[1-(1H-1,3-benzodiazol-2-yl)-5-hydroxy-3-(4-methanesulfonylphenyl)-1H-pyrazol-4-yl]ethyl}piperidine-1-carboxylate] | 5.01e-07 | Not active | 53.4 | 53.4 | 23.8 | 70.5 | 70.5 | 3.94e-07 | 3.94e-07 M and 1.93e-06 M | 3.94e-07 | 2.62E + 01 minutes | 1.83 | Toxic @ 1 μM |  |  |  | 
CC(C)COC(=O)N1CCC(c2nn(-c3nc4ccccc4[nH]3)c(O)c2CCc2ccc(F)cc2)CC1 [Compound I-721, 2-methylpropyl 4-[1-(1H-1,3-benzodiazol-2-yl)-4-[2-(4-fluorophenyl)ethyl]-5-hydroxy-1H-pyrazol-3-yl]piperidine-1-carboxylate] | 5.88e-06 | Borderline | 100 | 120 | 82.6 | 84.3 |  | 3.72e-05 | 3.72e-05 M | 3.72e-05 | 4.69E + 02 minutes | 1.20 | Toxic @ 10 nM | 120 | 84.3 | 2.24e-07 | 1.76e-06
